According to patent US20230174642A1, “AFFINITY-MATURATED ANTI-ASIC1a ANTIBODIES” (SHANGHAITECH UNIVERSITY, priority 2019, published 2023):

Legend:
ASIC1a = target: T1, ASIC1a (Homo sapiens, UniProt P78348); assay: Patch clamp whole-cell recording of acid-induced hASIC1a currents; type: cell-based; conditions: 30 μM amiloride, positive control; pH 7.4 to pH 6.0; read-out: inhibition of the acid-induced ASIC1a currents
T1 construct: expressed in transfected cells
T1 sequence (P78348 1-528): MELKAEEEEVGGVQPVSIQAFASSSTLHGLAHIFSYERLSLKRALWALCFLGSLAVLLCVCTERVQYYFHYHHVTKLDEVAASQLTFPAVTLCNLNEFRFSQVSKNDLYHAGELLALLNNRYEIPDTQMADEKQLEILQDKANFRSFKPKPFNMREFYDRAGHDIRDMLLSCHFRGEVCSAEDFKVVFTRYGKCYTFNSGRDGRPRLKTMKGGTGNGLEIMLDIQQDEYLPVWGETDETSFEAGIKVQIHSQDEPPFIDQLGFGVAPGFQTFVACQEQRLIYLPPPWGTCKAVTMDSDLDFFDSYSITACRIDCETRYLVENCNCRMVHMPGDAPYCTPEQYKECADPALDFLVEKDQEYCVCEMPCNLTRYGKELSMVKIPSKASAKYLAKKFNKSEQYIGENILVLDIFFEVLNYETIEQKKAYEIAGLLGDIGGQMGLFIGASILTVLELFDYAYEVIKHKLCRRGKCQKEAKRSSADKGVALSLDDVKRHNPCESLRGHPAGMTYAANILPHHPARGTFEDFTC
Procedure: FIGS. 4A-4E show the effect of affinity-matured ASC06-IgG1 derivative antibodies on the hASIC1a currents. Shown are the representative current traces recorded from single CHO-K1 cells stably expressing hASIC1a in the absence or presence of 100 nM ASC06-IgG1 (FIG. 4A) or affinity-matured ASC06-IgG1 versions ASC06-01-IgG1 (FIG. 4B), ASC06-02-IgG1 (FIG. 4C), ASC06-03-IgG1 (FIG. 4D), or ASC06-04-IgG1 (FIG. 4E). Amiloride (30 μM) was used as a positive control. “Wash” represents the recovery of the current after the treatment of 100 nM indicated antibody followed by 15 min infusion of washing solution.
Whether the affinity-matured ASC06-IgG1 derivative antibodies have an effect on the acid-induced, hASIC1a-mediated electrical current in cells was tested. An hASIC1a overexpressing stable cell line was used as a model for these studies. Extracellular pH was decreased from pH 7.4 to pH 6.0 and the amplitudes of the hASIC1a-mediated inward currents were recorded in the whole-cell recording mode in the presence of the affinity-matured ASC06-IgG1 derivative antibodies (FIGS. 4A-4E). The ASIC1a inhibitor amiloride (30 μM) was used as a positive control for the inhibition of ASIC1a currents.

[1] = target: T2, hASIC1a on CHO-K1 cells stably expressing hASIC1a (human, UniProt P78348 1-528); assay: cell-based or functional assay
T2 sequence (looked up): T1 sequence (P78348 1-528)

N=C(N)NC(=O)c1nc(Cl)c(N)nc1N [amiloride, reference compound]
inhibition at 30 µM (ASIC1a): > 50%

B1: ASC06-05-IgG1 (antibody, V domains shown)
VH: QVQLQQSGGGLVQPGGSLRLSCAASGFTFSSYAMSWVRQAPGKGLEWVSAISGSGGSTYYADSVKGRFTISRDNSKNTLYLQMNSLRAEDTAVYYCAKDSYFGRAKGSWGQGTLVTVSS
VL: QSALTQPASVSGSPGQSITISCTGTSSDVGAYNYVSWYQQQPGKAPKLMIYGVSNRPSGVSNRFSGSKSGNAASLTISGLQAEDEADYYCSSYTSSSTYVFGTGTKLTVLG
IC50 for the inhibition of ASIC1a currents, FMP assay [1]: 0.031 µM
